Laboratory results: publication PMC5610471, “Use of the KlADH3 promoter for the quantitative production of the murine PDE5A isoforms in the yeast Kluyveromyces lactis” (Microbial Cell Factories, 2017)

What was measured:
[1] = target: T1, PDE5A1 (Mus musculus, UniProt Q8CG03); experiment: biochemical
T1 construct: gene Pde5a

[2] = tested on: [H][C@@]12COP(=O)(O)O[C@@]1([H])[C@@H](O)[C@H](n1cnc3c(=O)[nH]c(N)nc31)O2; experiment: purified protein; details: Mg2+ ([…] MgCl2 in the assay buffer)

Molecule	IC50 [1] [nM]	Km [2] [µM]
CCCc1nn(C)c2c(=O)[nH]c(-c3cc(S(=O)(=O)N4CCN(C)CC4)ccc3OCC)nc12 [Sildenafil]	4.7 ± 1.1	
PDE5A1 (Mus musculus)		1.08 ± 0.08
